Legend:
[1] = in vivo; cited from earlier work
[2] = Solubility of deutetrabenazine versus pH; assay type: physicochemical
Procedure: (§1) Deutetrabenazine is permeable through the small intestinal (SI) segments in a rat perfusion model.
The dosage forms disclosed herein were developed to achieve similar pharmacokinetics (PK) of 2 doses of AUSTEDO® 12 mg tablets with a single daily dose (QD).

[3] = test system: small intestinal (SI) segments; assay type: in vivo; details: rat
From the text: as §1

[4] = design: species or system human; details: in vivo
[5] = Particle size distribution by laser diffractometry (Mastersizer 3000); assay type: physicochemical; details: drug substance, Table 1
Procedure: Particle size distribution is determined by means of laser diffractometry. More specifically, the particle size distribution was determined using a Mastersizer 3000 from Malvern Instruments. The particle size determination may be carried out as a wet or dry measurement depending on the sample.
The deutetrabenazine particle size distributions following manufacture (untreated), micronization (air jet mill) and nano-milling (Dyno bead mill) are shown in Table 1.
Using a Mastersizer 3000 (Malvern Instruments), the following settings were used for dry measurement of the micro-milled and unmilled deutetrabenazine:
Using a Mastersizer 3000 (Malvern Instruments), the following settings were used for wet measurement of the nano-milled deutetrabenazine:
Deutetrabenazine particle size was reduced to a nanometer size (<1.0 micron) using a wet Dyno milling process in several passes. The milled deutetrabenazine was dispersed in excipient as above. The dispersion was passed through a 0.3 liter agitator bead mill containing 950 g of very high density zirconium oxide beads. The dispersion was passed through the agitator mill for up to 2 hrs to obtain particle size below 1.0 micron.

## [2H]C([2H])([2H])Oc1cc2c(cc1OC([2H])([2H])[2H])[C@H]1CC(=O)[C@H](CC(C)C)CN1CC2 [Deutetrabenazine, (RR,SS)-1,3,4,6,7,11b-hexahydro-9,10-di(methoxy-D3)-3-(2-methylpropyl)-2H-benzo[a]quinolizin-2-one]
[1]
  half-life of active metabolites relative to tetrabenazine: increased half-life
[2]; acidic environment (pH<4)
  solubility: relatively good solubility
[2]; pH ≥4
  solubility: < 2300 µg/mL
[3]
  permeability through small intestinal (SI) segments: permeable
[3]; in vivo
  ileum absorption: about 0.0006 cm/sec
  levels of absorption in the lower GI, order of segments: Jejunum<Mid-small intestine<Colon<Ileum
[4]
  radioactive dose recovered in urine: approximately 80%

## [2H]C([2H])([2H])Oc1cc2c(cc1OC([2H])([2H])[2H])C1CC(=O)C(CC(C)C)CN1CC2 (stereo not shown) [micro-milled]
[5]
  D10: 1.08 μm
  D50: 3.31 μm
  D90: 7.05 μm

## [2H]C([2H])([2H])Oc1cc2c(cc1OC([2H])([2H])[2H])C1CC(=O)C(CC(C)C)CN1CC2 (stereo not shown) [nano-milled]
[5]
  D10: 0.07 μm
  D50: 0.14 μm
  D90: 0.34 μm

From patent publication US20230364075A1, “[…] DOSAGE FORMS COMPRISING DEUTETRABENAZINE” (AUSPEX PHARMACEUTICALS, INC., priority 2020, published 2023)
